{
  "source": "patent US20250308633A1",
  "about": "“Methods Regarding the Treatment or Prevention of Diseases Including Cancer by Modulating Transcriptional Networks Controlling MET and EMT” (Yale University, priority 2024, published 2025)",
  "target": "T1, ESRRA (Homo sapiens, UniProt P11474)",
  "T1 construct": "endogenous in cells; host or cells: HCC38 CD44hi cells (FACS-sorted from bulk HCC38, 2D culture)",
  "T1 sequence (P11474 1-423)": "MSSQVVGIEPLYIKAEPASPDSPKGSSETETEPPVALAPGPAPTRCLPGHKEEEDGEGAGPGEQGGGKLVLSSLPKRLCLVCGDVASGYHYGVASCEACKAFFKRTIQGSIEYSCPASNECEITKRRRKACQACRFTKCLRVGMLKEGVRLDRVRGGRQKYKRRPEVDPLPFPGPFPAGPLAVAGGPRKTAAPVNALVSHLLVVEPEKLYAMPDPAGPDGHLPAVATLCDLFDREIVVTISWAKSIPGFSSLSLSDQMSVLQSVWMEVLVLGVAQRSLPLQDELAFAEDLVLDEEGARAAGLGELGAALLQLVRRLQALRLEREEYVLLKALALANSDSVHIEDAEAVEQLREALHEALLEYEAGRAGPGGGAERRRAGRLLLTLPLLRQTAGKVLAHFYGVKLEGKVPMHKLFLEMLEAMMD",
  "assay": "Western blot of CDH1 expression after ESRRA inhibitor (C14) treatment of HCC38 CD44hi cells",
  "assay_type": "cell-based",
  "conditions": "2D cultured HCC38 CD44hi cells; 5 and 10 M; 48 hours post-treatment; vs DMSO vehicle; n=3 biological replicates; p≤0.05",
  "procedure": "In parallel, HCC38 CD44^hi cells were also treated with an ESRRA inhibitor ((2-Aminophenyl)(1-(3-isopropylphenyl)-1H-1,2,3-triazol-4-yl)methanone) (BLD Pharm, China, Cat no. BD01201330) (referred to as Compound 14 (C14) herein) at 5 and 10 M concentrations. Vehicle controls were treated with DMSO. Cells were harvested 48 hours post-treatment and processed for protein extraction which were studied for changes in ESRRA and CDH1 expression using western blot (n=3 biological replicates).\nWestern Blotting: Proteins were extracted from control and treated cells using ice cold modified RIPA buffer (50 mM Tris-HCl pH 7.5, 150 mM NaCl, 1 mM EDTA, 1 mM EGTA, 1% Triton X-100, 0.1% SDS with supplemented with 1× protease and phosphatase inhibitor cocktails). The lysates were sonicated using a QSONICA Q55 probe sonicator at […] for 20 seconds in an ice bath. This whole cell lysate was centrifuged at 14,000×g for 10 min at 4° C. and stored in −80° C. until further use. Proteins were quantified using the Pierce™ BCA Protein Assay Kit (Cat. 23227, Thermo Fisher Scientific, USA) as per the manufacturer's instructions. […]\nNext, membranes were incubated with appropriate HRP-conjugated secondary antibodies. […] The signal intensity of the bands in western blots was quantified using Image Studio Lite version 5.2 (LI-COR Biotechnology, USA).",
  "data": [
    {"compound": "CC(C)c1cccc(-n2cc(C(=O)c3ccccc3N)nn2)c1", "note": "[ESRRA antagonist, (2-Aminophenyl)(1-(3-isopropylphenyl)-1H-1,2,3-triazol-4-yl)methanone]", "values": [
      {"measurement": "CDH1 expression (western blot, relative fold-change)", "result": "significant increase"}
    ]}
  ]
}
